The values below are quoted from earlier work in patent US20170247366A1, “SUBSTITUTED 4-ALKOXYPICOLINAMIDE ANALOGS AS MGLUR5 NEGATIVE ALLOSTERIC MODULATORS AND METHODS OF MAKING AND USING THE SAME” (VANDERBILT UNIVERSITY, priority 2014, published 2017).

The test system of series [1] is N-methyl-D-aspartate (NMDA) receptor. To be noted: at higher concentrations; cited from earlier work.
The target of another series is mGluR4 (Homo sapiens, UniProt Q14833). To be noted: cited from earlier work.
A further series concerns marble burying in mice. To be noted: cited from earlier work.
For series [2] the following is noted: intravenous administration to rhesus monkeys; cited from earlier work.
The next series has as its target T1, cytochrome P450 1A2 (Homo sapiens, UniProt P05177).
T1 sequence (P05177 1-516): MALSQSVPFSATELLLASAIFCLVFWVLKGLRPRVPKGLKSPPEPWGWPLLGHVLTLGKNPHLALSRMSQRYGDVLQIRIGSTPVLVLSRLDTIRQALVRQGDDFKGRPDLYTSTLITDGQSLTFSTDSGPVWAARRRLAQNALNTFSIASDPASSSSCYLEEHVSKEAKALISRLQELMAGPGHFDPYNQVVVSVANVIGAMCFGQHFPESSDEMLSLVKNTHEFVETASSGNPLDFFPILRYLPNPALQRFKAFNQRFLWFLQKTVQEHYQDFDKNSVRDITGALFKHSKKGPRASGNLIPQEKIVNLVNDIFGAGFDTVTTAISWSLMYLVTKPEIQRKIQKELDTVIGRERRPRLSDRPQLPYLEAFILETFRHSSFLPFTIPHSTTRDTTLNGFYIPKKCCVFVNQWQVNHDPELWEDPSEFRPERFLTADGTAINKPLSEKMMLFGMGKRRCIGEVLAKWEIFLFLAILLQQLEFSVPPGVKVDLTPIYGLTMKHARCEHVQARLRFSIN
To be noted: cited from earlier work.

Chain of mGluR4 (Q14833 33-912): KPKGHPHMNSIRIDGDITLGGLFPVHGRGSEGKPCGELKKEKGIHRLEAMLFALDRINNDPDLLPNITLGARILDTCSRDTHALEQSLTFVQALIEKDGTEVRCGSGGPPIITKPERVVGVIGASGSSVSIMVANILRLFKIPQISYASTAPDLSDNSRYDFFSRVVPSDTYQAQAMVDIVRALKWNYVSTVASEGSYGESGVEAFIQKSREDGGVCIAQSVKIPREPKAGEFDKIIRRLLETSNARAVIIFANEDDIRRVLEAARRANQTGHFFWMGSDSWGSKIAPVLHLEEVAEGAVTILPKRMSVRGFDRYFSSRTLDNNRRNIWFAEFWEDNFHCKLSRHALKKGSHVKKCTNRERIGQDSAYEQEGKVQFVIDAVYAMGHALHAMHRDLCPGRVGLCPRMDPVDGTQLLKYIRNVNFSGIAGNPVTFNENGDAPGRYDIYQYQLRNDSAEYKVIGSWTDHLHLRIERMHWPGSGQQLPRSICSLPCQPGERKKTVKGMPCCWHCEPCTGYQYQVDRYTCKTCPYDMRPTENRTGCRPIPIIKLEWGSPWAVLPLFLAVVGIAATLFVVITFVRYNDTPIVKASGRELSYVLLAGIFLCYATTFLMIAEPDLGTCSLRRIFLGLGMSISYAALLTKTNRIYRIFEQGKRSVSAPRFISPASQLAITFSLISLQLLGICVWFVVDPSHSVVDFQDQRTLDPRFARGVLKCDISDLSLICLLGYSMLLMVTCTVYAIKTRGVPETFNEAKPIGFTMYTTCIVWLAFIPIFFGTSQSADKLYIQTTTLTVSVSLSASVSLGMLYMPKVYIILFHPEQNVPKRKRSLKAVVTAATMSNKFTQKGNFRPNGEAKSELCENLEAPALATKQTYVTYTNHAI

As for `Cc1cccc(C#Cc2ccccc2)n1` [MPEP, 2-methyl-6-(phenylethynyl) pyridine], the “NMDA receptor activity inhibition” value in series [1] is on record as “directly inhibit”. At mGluR4, the “Activity at mGluR4” value is listed as “positive allosteric modulator”. In the series on marble burying in mice, the “Efficacy in marble burying model” value is “effective”.

In the case of `Cc1nc(C#Cc2cccnc2)cs1` [MTEP, 3-[(2-methyl-1,3-thiazol-4-yl)ethynyl]pyridine], in series [2], the Clearance result was “efficiently cleared”. For the same compound, on cytochrome P450 1A2, the “Inhibition of cytochrome P450 1A2” value is given as “potent inhibitor”.
